Patent US11857601B2, “Pharmaceutical composition for cancer treatment comprising fusion protein including IL-2 protein and CD80 protein and anticancer drug” (GI INNOVATION, INC., priority 2020, dated 2024)
“Also recorded” adds a separate entry of the source. Marks after values point to notes of the source that are not given here.

What was measured:
CT-26 cancer cell line [1] = test: mGI101 in mice transplanted with CT-26 (Exp. Ex. 19); format: in vivo, BALB/c mice
[2] = system: effector CD8+ T cells, NK cells, Treg cells; test: Effect on mouse immune cells in spleen; format: in vivo, C57BL/6 mice; details: 3rd to 14th days after i.v. administration (3, 6 or 12 mg/kg), vs PBS
Protocol: On days 1, 3, 5, 7, and 14 after the injection, the spleen tissues were removed from the mice of each group. Thereafter, for the spleen tissue, the numbers of effector CD8+ T cells, NK cells, and Treg cells were calculated with FACS analysis using respective antibodies, and proportions of effector CD8+ T cells and NK cells with respect to Treg cells were respectively calculated. The information on the antibodies used in each cell analysis is as follows:
Effector CD8+ T cell: PB anti-mouse CD3ε antibody (Biolegend, #155612; KT3.1.1), FITC anti-mouse CD8α antibody (BD, #553031, 53-6.7), PE/Cy7 anti-mouse CD44 antibody (Biolegend, #103030; IM7), APC anti-mouse CD122 antibody (Biolegend, #123214; TM-β1)
NK cell: PB anti-mouse CD3ε antibody (Biolegend, #155612; KT3.1.1), PE anti-mouse NK-1.1 (Biolegend, #108708; PK136)
Treg cell: FITC anti-mouse CD3 antibody (Biolegend, #100204; 17A2), PB anti-mouse CD4 antibody (Biolegend, #100531; RM4-5), PE anti-mouse CD25 antibody (Biolegend, #102008; PC61), APC anti-mouse Foxp3 antibody (Invitrogen, #FJK-16s, 17-5773-82).

CT26 cells [3] = test: mGI-101 and Guadecitabine in CT26 allotransplanted tumor model; format: in vivo, BALB/c mice; details: for tumor size level vs control: day 10, alone or + Guadecitabine
Description: CT26 cells were purchased from ATCC (USA) and cultured in RPMI1640 medium (Gibco) containing 10% FBS (Gibco) and 1% antibiotic/antifungal agent (Gibco). The cultured cells were harvested using trypsin (Gibco) and then suspended in PBS. In order to establish an allotransplanted tumor model, 5×10^5 of CT26 cells were subcutaneously injected into the right flank of BALB/c female mice (8-week-old) (FIG. 97).
The tumor grafts of the mice were identified about day 7 after cell inoculation, and the mice were randomly assigned based on tumor volume (50-120 mm^3), each group including 13 mice.
Clinical symptoms such as a disease and a behavioral change were observed once a day during the test period, and deceased animals were identified, and the mice were sacrificed when the tumor size reached a size of 4,000 mm^3. The size of the CT26 solid cancer was measured using a tumor 3D scanner (TM900, Peria, Belgium). […] The anti-tumor efficacy was evaluated as compared with the vehicle control. All statistical calculations were performed using Prism 8.0 (Graph Pad Software Inc, USA). The comparison of tumor volume measurements was made through two-way analysis of variance followed by Tukey's multiple comparison test. A p value of less than 0.05 was considered significant.

BT-474 cells = test: mGI-101 and Herceptin in BT-474 xenotransplanted tumor model; format: in vivo, human
Description: BT-474 cells were purchased from ATCC (USA) and cultured in RPMI1640 medium (Welgene) containing 10% FBS (Gibco) and 1% antibiotic/antifungal agent (Gibco).
In order to establish a xenotransplanted tumor model for BT-474 cells, it was subcutaneously injected into the left flank of BALB/c nu/nu female mice (7-week-old) by pulling the leather skin of the mice to make a space using a pellet transplant trochar (MP-182, Innovative Research of America, USA) so that it was located under the skin of the left flank.
A certain period of time after cell inoculation of the tumor grafts of the mice, the tumor volume was measured for animals with no abnormalities in the health condition of the animals, and the subjects were selected so that the average of each group reached less than 60-120 mm^3, and the selected animals were assigned as evenly as possible based on tumor volume and body weight, each group including 10 animals.
Clinical symptoms such as a disease and a behavioral change were observed once a day during the test period, and deceased animals were identified, and the mice were sacrificed when the tumor size reached a size of 4,000 mm^3.
The tumor volume before administration of each subject was set as the value measured at the time of grouping.
All statistical calculations were performed using Prism 8.0 (Graph Pad Software Inc, USA). The comparison of tumor volume measurements was made through two-way analysis of variance followed by Tukey's multiple comparison test. A p value of less than 0.05 was considered significant.

CT26 cells [4] = test: mGI-101 and Axitinib in CT26 allotransplanted tumor model; details: mGI-101 3 mg/kg IP, Axitinib 30 mg/kg PO;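 also: subcutaneous CT26 syngeneic tumors in male BALB/c mice, dosing started once tumors were near 50 mm^3, drugs given orally or intraperitoneally for up to 3 weeks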
Protocol: (§1) Mouse-derived colorectal cancer cells, CT26 (Mus musculus, Colon adenocarcinoma), and mouse-derived lung cancer cells, LL/2 (Mus musculus, Lung adenocarcinoma), were purchased from ATCC (USA) and used for the test. The cells to be used for the test were thawed, mixed with RPMI1640 (A1049101, Thermofisher scientific) medium containing 10% FBS (fetal bovine serum, Gibco, 10082-147), and then placed in a cell culture flask, and cultured in a 37° C., 5% CO2 incubator. The cells were washed with PBS, and then the cells were isolated using Trypsin-EDTA (15090, Gibco), and centrifugation (125×g, 5 minutes) was performed to discard the supernatant, and then the cells were suspended in a new medium to obtain the cell suspension. The viability of the cells was identified, and then a cell line was prepared by diluting in a medium to a concentration of 5.0×10^6 cells/mL.
(§2) 6-week-old male BALB/cAnHsd mice or C57BL/6NHsd mice were purchased and used for the test. After the end of the acclimation period of 7 days, the cells were transplanted into healthy animals. The cell suspension (5×10^6 cells/mL) was dispensed, and filled into a disposable syringe, and transplantation of the suspension was performed by subcutaneous administration at 0.1 mL/head in the right dorsal region of the animals. General symptoms were observed once a day during the engraftment and growth period after cell line transplantation.
(§3) After the inoculation of the cell line was performed, when the tumor size at the site to which the cell line was transplanted reached about 50 mm^3, the tumor size of each group was distributed as uniformly as possible according to the ranked tumor size.
(§4) The test substance was administered orally or intraperitoneally, and administered for 3 weeks depending on the composition of the test group. In the case of oral administration, the animals were fixed with the cervical spine skin fixation method, and administered directly into the stomach using a sonde for oral administration. In the case of intraperitoneal administration, the animals were fixed with the cervical spine skin fixation method, and administered intraperitoneally using a syringe equipped with a 26 gauge needle. The administration rate was not to exceed 200 μl/min.
Syngeneic model was prepared by subcutaneously transplanting the CT26 cell line into Balb/c mice, and then the test substance was administered to evaluate the anticancer effect.

LL/2 cell line = test: mGI-101 and Axitinib in LL/2 allotransplanted tumor model; format: in vivo, C57BL/6 mice; details: mGI-101 3 mg/kg IP, Axitinib 30 mg/kg PO
Protocol: as §1, §2, §3, §4
Syngeneic model was prepared by subcutaneously transplanting the LL/2 cell line into C57BL/6 mice, and then the test substance was administered to evaluate the anticancer effect.

CT-26 cancer cell line [5] = test: GI101 in mice transplanted with CT-26 (Exp. Ex. 16.1); format: in vivo, BALB/c mice
Protocol: The tumor size was measured daily.

[6] = BT-474, end of the test, 10 animals per group

Q: What does the source list for “mGI101: fusion protein: mouse CD80, Ig hinge, Fc domain, linker, IL-2 variant (2M) (R38A, F42A); SEQ ID NO: 15”?
A: tumor volume / tumor size (CT-26 cancer cell line [1]; 6 mg/kg i.v., vs negative control): significant inhibition of tumor size; tumor growth inhibition rate / anticancer efficacy (CT-26 cancer cell line [1]; compared with combination of mCD80 4.9 mg/kg and Fc-IL-2v (GI101C2) 2.8 mg/kg): excellent tumor growth inhibition rate; also recorded: excellent anticancer efficacy; tumor inhibitory efficacy (CT-26 cancer cell line [1]; compared with respective mCD80 and IL-2v single formulations): had tumor inhibitory efficacy; numbers of CD8+ T cells and NK cells [2]: significant increase; tumor size level vs control (CT26 cells [3]; mGI-101 0.6 mg/kg): tended to be lower; tumor size level vs control (CT26 cells [3]; mGI-101 3 mg/kg): statistically significantly lower; tumor growth inhibitory effect (individual tumor sizes) (CT26 cells [3]; mouse, in vivo): exhibited the tumor growth inhibitory effect; number of mice with tumor growth inhibition rate of 30% or more (BT-474 cells; [6]): 5 mice; number of mice with tumor growth inhibition rate of 50% or more (BT-474 cells; [6]): 1 mice; number of mice with tumor growth inhibition rate of 80% or more (BT-474 cells; [6]): no mouse; tumor size compared with the vehicle control (BT-474 cells; mGI-101 3 mg/kg i.v. QW: day 28, Herceptin 1 mg/kg i.p. QW: day 14, 18, 21, combination: day 14 to day 28): statistically significant reduction in tumor size; Tumor size (CT26 cells [4]; Day 0, mean ± SD): 63.53 ± 11.56 mm^3; Tumor growth inhibition (CT26 cells [4]; Day 5, mean ± SD): 58.32 ± 24.95 %; Tumor size (CT26 cells [4]; Day 5, mean ± SD): 186.53 ± 76.61 mm^3; Tumor growth inhibition (CT26 cells [4]; Day 7, mean ± SD): 62.12 ± 38.89 %; Tumor size (CT26 cells [4]; Day 7, mean ± SD): 249.93 ± 149.08 mm^3; Tumor growth inhibition (CT26 cells [4]; Day 9, mean ± SD): 62.87 ± 34.95 %; Tumor size (CT26 cells [4]; Day 9, mean ± SD): 290.71 ± 165.17 mm^3; Tumor growth inhibition (CT26 cells [4]; Day 12, mean ± SD): 66.48 ± 29.50 %; Tumor size (CT26 cells [4]; Day 12, mean ± SD): 352.46 ± 195.64 mm^3; Tumor growth inhibition (CT26 cells [4]; Day 14, mean ± SD): 65.87 ± 29.12 %; Tumor size (CT26 cells [4]; Day 14, mean ± SD): 520.04 ± 307.47** mm^3; Tumor growth inhibition (CT26 cells [4]; Day 16, mean ± SD): 52.36 ± 41.33 %; Tumor size (CT26 cells [4]; Day 16, mean ± SD): 962.28 ± 634.90** mm^3; Tumor growth inhibition (CT26 cells [4]; Day 19, mean ± SD): 41.48 ± 52.17 %; Tumor size (CT26 cells [4]; Day 19, mean ± SD): 1395.48 ± 982.61** mm^3; Tumor growth inhibition (CT26 cells [4]; Day 21, mean ± SD): 44.57 ± 46.55 %; Tumor size (CT26 cells [4]; Day 21, mean ± SD): 1987.45 ± 1320.62**** mm^3; Tumor size (LL/2 cell line; Day 0, mean ± SD): 55.70 ± 11.48 mm^3; Tumor growth inhibition (LL/2 cell line; Day 2, mean ± SD): −7.12 ± 34.31%; Tumor size (LL/2 cell line; Day 2, mean ± SD): 99.18 ± 19.96 mm^3; Tumor growth inhibition (LL/2 cell line; Day 5, mean ± SD): 1.83 ± 27.19%; Tumor size (LL/2 cell line; Day 5, mean ± SD): 179.58 ± 39.71 mm^3; Tumor growth inhibition (LL/2 cell line; Day 7, mean ± SD): 12.67 ± 19.15%; Tumor size (LL/2 cell line; Day 7, mean ± SD): 409.37 ± 72.98 mm^3; Tumor growth inhibition (LL/2 cell line; Day 9, mean ± SD): 5.78 ± 24.08%; Tumor size (LL/2 cell line; Day 9, mean ± SD): 749.00 ± 174.47 mm^3; Tumor growth inhibition (LL/2 cell line; Day 12, mean ± SD): 6.89 ± 28.47%; Tumor size (LL/2 cell line; Day 12, mean ± SD): 1066.72 ± 307.18 mm^3; Tumor growth inhibition (LL/2 cell line; Day 14, mean ± SD): 1.85 ± 36.39%; Tumor size (LL/2 cell line; Day 14, mean ± SD): 1608.00 ± 572.50 mm^3; Tumor growth inhibition (LL/2 cell line; Day 16, mean ± SD): 0.91 ± 39.37%; Tumor size (LL/2 cell line; Day 16, mean ± SD): 2200.03 ± 850.12 mm^3; Tumor growth inhibition (LL/2 cell line; Day 19, mean ± SD): −5.99 ± 39.91%; Tumor size (LL/2 cell line; Day 19, mean ± SD): 3223.87 ± 1191.11 mm^3; Tumor growth inhibition (LL/2 cell line; Day 21, mean ± SD): −2.78 ± 32.04%; Tumor size (LL/2 cell line; Day 21, mean ± SD): 5431.08 ± 1673.60 mm^3

Q: Which tumor inhibitory effect (CT-26 cancer cell line [5]; GI101 0.1 mg/kg, compared with anti-PD-1 antibody group (p<0.05)) does the source give for “GI101: fusion protein: human CD80 fragment, Ig hinge, Fc domain, linker, IL-2 variant (2M) (R38A, F42A); SEQ ID NO: 9” here?
A: significant tumor inhibitory effect

Q: And the Tumor growth inhibition (CT-26 cancer cell line [5]; GI101 0.1 or 1 mg/kg, anti-PD-1 5 mg/kg, anti-CTLA-4 5 mg/kg i.v., vs negative control)?
A: significant tumor growth inhibition
